Experiments:
Type in all cases: cell-based
Ole1 = biological target: T1, Ole1 (Saccharomyces cerevisiae, UniProt P21147); test: Growth inhibition of yeast expressing Ole1 as sole desaturase; conditions: for OLE1 % Max Inhibition: yeast expressing Ole1 as sole desaturase; for Sensitivity of yeast expressing OLE1 to known SCD1/SCD5 inhibitors: FIG. 6
T1 construct: expressed in transfected cells; host or cells: S. cerevisiae ole1Δ strain (W303 pdr1Δ pdr3Δ background), plasmid pRS316 with TDH3 promoter and CYC1 terminator
T1 sequence (P21147 1-510): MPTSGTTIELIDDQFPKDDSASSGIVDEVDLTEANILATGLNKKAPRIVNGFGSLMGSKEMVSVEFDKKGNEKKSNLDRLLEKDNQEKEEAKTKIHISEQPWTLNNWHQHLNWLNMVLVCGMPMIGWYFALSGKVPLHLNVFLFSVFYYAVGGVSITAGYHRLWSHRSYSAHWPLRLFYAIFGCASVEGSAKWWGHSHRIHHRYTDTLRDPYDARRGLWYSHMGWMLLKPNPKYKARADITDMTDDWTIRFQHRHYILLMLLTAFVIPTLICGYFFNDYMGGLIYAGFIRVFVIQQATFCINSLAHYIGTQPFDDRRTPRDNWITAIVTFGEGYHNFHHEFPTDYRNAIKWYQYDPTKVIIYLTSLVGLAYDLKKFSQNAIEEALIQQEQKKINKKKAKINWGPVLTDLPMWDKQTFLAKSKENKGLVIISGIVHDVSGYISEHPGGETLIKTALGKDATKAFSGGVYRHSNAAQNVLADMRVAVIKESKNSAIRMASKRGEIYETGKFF
Experimental: (§1) Strain ole1Δ (yeast ole1 deletion mutant) was constructed by deleting OLE1 with NAT-MX6 in BY4741, amplifying the deletion cassette from the genomic DNA of the resulting strain with primers flanking the ORF by 1000 bp upstream and downstream, transforming the resulting deletion cassette into W303 pdr1Δ pdr3Δ, and plating transformants on YPD media containing G418 (200 μg/mL) and nourseothricin (100 μg/mL) with 0.01% TWEEN®-20 and 0.5 mM oleic and palmitoleic acids.
(§2) The coding sequence of yeast OLE1 was also cloned into this plasmid). These clones were then transformed into the ole1Δ strain and plated on CSM-Ura media (CSM lacking uracil) with 2% glucose (w/v) and independent colonies were isolated and amplified.
(§3) All compound profiling experiments were performed using the same basic protocol. Different genetic backgrounds (e.g., gene deletions) or conditions (e.g., addition of oleic and palmitoleic acid) were replaced as indicated below.
(§4) Yeast were cultured using standard techniques in complete synthetic media (CSM) and yeast nitrogen base supplemented with 2% (w/v) carbon source (glucose, raffinose, or galactose) to regulate the expression of the toxic disease protein. An initial starter culture was inoculated in 3 mL CSM-Glucose media and incubated overnight in a 30° C. shaker incubator (225 rpm). Saturated morning cultures were then diluted 1:20 in fresh CSM-Raffinose media and grown for 6 h to an OD600 (optical density) of ˜0.4-0.8 at 30° C. with shaking.
(§5) Compound administration was performed in two separate steps. First, 15 μL of CSM-Galactose (induces expression of toxic protein) was dispensed into clear 384 well assay plates using a MULTIDROP™ Combi reagent dispenser. […] The cultures described above were then diluted to a 2× concentration (0.03 and 0.08 for alpha-synuclein and ApoE, final OD600 of 0.015 and 0.04) in CSM-Galactose. For wild-type and Ole1/SCD1/SCD5 plasmid-containing strains, the 2× cell density was 0.02. […] For 96-well assays (FIGS. 1A and 1B), compound dilutions in DMSO were generated in 96 well plates and 1 μL was manually pipetted into 96 well clear bottom assay plates.
(§6) For experiments using a plasmid-borne copy of Ole1, SCD1, or SCD5 (FIGS. 3B, 6, and 7), media lacking uracil (SX-Ura, where X is glucose, raffinose, or galactose), was used for all steps of the compound profiling protocol to ensure its maintenance throughout the assay.
(§7) After yeast delivery, assay plates were incubated under humidified conditions at 30° C. for 24 to 40 h. ApoE4 rescue experiments were stopped at 24 h, aSyn experiments at 40 h, Ole1 at 24 h, and SCD1/SCD5 at 40 h. The growth of yeast was monitored by reading the OD600 of each well using a microplate reader (Perkin Elmer EnVision™).

SCD1 = biological target: T2, SCD1 (Homo sapiens, UniProt O00767); test: Growth inhibition of humanized yeast expressing SCD1 as sole desaturase; conditions: for half-maximal inhibitory concentration (IC50), SCD1 humanized strain: FIG. 6
T2 construct: host or cells: S. cerevisiae ole1Δ strain, plasmid pRS316 with TDH3 promoter and CYC1 terminator
T2 sequence (O00767 1-359): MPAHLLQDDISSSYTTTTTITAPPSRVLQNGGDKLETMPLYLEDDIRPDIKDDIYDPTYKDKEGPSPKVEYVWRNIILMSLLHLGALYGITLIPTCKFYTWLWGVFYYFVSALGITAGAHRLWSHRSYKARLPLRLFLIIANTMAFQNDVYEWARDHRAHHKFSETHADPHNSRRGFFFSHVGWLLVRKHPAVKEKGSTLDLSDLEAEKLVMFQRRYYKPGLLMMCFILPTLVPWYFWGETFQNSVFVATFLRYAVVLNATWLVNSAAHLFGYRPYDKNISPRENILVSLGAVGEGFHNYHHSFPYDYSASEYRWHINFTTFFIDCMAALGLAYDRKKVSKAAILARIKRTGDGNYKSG
In short: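 ole1Δ yeast (W303 pdr1Δ pdr3Δ background) carried plasmid-borne human SCD1, human SCD5 or yeast Ole1 as the sole desaturase and were grown in uracil-lacking galactose medium in 384-well plates. Starting 2× density was OD600 0.02, with incubation at 30 °C. Growth was read as OD600 at 24 h for Ole1 and at 40 h for SCD1 and SCD5.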

SCD5 = biological target: T3, SCD5 (Homo sapiens, UniProt Q86SK9); test: Growth inhibition of humanized yeast expressing SCD5 as sole desaturase; conditions: for half-maximal inhibitory concentration (IC50), SCD5 humanized strain: FIG. 6
T3 construct: host or cells: S. cerevisiae ole1Δ strain, plasmid pRS316 with TDH3 promoter and CYC1 terminator
T3 sequence (Q86SK9 1-330): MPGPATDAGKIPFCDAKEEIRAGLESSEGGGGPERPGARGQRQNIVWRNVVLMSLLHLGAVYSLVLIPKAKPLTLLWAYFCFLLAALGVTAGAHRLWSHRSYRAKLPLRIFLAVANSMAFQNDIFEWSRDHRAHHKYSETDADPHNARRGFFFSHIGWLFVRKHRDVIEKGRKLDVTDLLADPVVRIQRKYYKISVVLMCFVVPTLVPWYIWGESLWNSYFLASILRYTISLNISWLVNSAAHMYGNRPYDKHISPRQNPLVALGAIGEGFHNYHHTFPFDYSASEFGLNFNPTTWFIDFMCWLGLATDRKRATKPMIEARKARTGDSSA
Experimental: as §1, §2, §3, §4, §5, §6, §7

[1] = test system: yeast strains expressing the human protein α-synuclein; test: Yeast rescue assay, α-synuclein toxicity (OD600 growth); conditions: Homo sapiens, 40 h
Experimental: In a standard yeast assay, a single-use aliquot of cells was thawed on ice and diluted into CSM/glucose (5 mL). Cultures were grown for 8 hours at 30° C. This pre-growth enables the yeast to exit the thaw and begin to grow without expressing aSyn or ApoE4. After 8 hours, cell density (OD600) was determined and cultures diluted to an OD600 of 0.01 in CSM/raffinose for an overnight culture phase at 30° C. During this period, the active glucose repression of the GAL1 promoter was relieved; however, expression of the α-Syn/ApoE4 genes were not yet induced. After ˜16 hours of growth, cultures attain an OD600 of 0.4-0.8 and were ready to apply to assay plates containing compound.
Compound profiling assays were executed in clear-bottom 384 well plates. First, compound plates were thawed at room temperature for 45′, centrifuged at 1,000×g for 1 minute, and the foil removed. Clear 384 well assay plates were then filled with 15 μL of CSM/galactose. Both compound and media-containing plates were arranged on the Janus workstation and a compound pin tool (384×100 nL slotted pins) used to deliver 100 nL of compounds to each well according to the well map of the compound plate. Based on the previous serial dilution, the final concentration of compound ranged from […] to 12.5 nM. The pin tool was washed iteratively with both 50% DMSO and 100% ethanol between each assay plate. After delivering compound to each assay plate, the overnight CSM/raffinose aSyn or ApoE4 cultures were added at a 2× cell density (0.04 for aSyn and 0.08 for ApoE4) in CSM/galactose to achieve a final assay OD600 of 0.02 and 0.04 for aSyn and ApoE, respectively. The cultures (15 μL per well) were then dispensed to the compound-containing 384 well assay plates using an automated plate filler. Plates were incubated in a humidified 30° C. incubator for 40 or 24 hours for aSyn and ApoE4, respectively. The OD600 of each assay plate was then read with a microplate reader (e.g., Perkin Elmer Envision).
The efficacy and potency of compounds were calculated according to the following. Raw data (OD600 values) were first background corrected to account for OD600 contributed by the plate and media itself. The efficacy (percent above DMSO, herein referred to as “Emax”) was calculated according to the equation: (Experimental well−DMSO control well)/(DMSO control well)*100. […] Normalized dose-response data was fit with a logistic regression curve using Spotfire (TIBCO), or similar curve-fitting software package. EC50 values were then reported along with EMax to provide both efficacy and potency measures for each analog and enable further compound design.

[2] = humanized yeast expressing SCD1
[3] = humanized yeast expressing SCD5
[4] = humanized yeast expressing human SCD1
[5] = humanized yeast expressing human SCD5

SMILES	OLE1 % Max Inhibition (Ole1)	IC50 (SCD1; [4])	SCD1 % Max Inhibition (SCD1; [4])	IC50 (SCD5; [5])	SCD5 % Max Inhibition (SCD5; [5])	also measured
COc1ccc(-c2noc(C3CCN(C(=O)[C@@H]4CC(=O)N(c5ccc(C)c(C)c5)C4)CC3)n2)cc1OC [Compound 68]	9.74%					IC50 (SCD1; [2]): > 45 µM; SCD1 % Max Inhibition (SCD1; [2]): 22.28%; IC50 (SCD5; [3]): > 45 µM; SCD5 % Max Inhibition (SCD5; [3]): 3.75%
CCN1C(=O)CN(C)c2ccc(-c3noc(C4CCN(C(=O)CNC(=O)c5ccccc5)CC4)n3)cc21 [Compound 298]	6.6%	> 45 µM	92.3%	> 45 µM	21.3%	
Cc1nn(C)c2cc(-c3noc(C4CCN(C(=O)OC(C)(C)C)CC4)n3)ccc12 [Compound 300]	79.7%	> 45 µM	78.1%	> 45 µM	36.0%	
Cc1nn(C)c2cc(-c3nsc(C4CCN(C(=O)CNC(=O)c5cccc(C#N)c5)CC4)n3)ccc12 [Compound 322]	9.0%	> 45 µM	73.6%	> 45 µM	29.8%	
CNC(=O)c1cccc(NC(=O)N2CCC(Oc3ccccc3Cl)CC2)c1 [Compound A939572, reference compound]						Sensitivity of yeast expressing OLE1 to known SCD1/SCD5 inhibitors (Ole1): resistant; half-maximal inhibitory concentration (IC50), SCD1 humanized strain (SCD1): low nanomolar; half-maximal inhibitory concentration (IC50), SCD5 humanized strain (SCD5): low nanomolar
Cc1nnc(-c2ccc(N3CCC(Oc4ccccc4C(F)(F)F)CC3)nn2)s1 [MF-438, reference compound]						Sensitivity of yeast expressing OLE1 to known SCD1/SCD5 inhibitors (Ole1): resistant; half-maximal inhibitory concentration (IC50), SCD1 humanized strain (SCD1): low nanomolar; half-maximal inhibitory concentration (IC50), SCD5 humanized strain (SCD5): low nanomolar
CCOc1ccc(-c2noc(C3CCN(C(=O)[C@@H]4CC[C@H](c5ccccc5)N4)CC3)n2)cc1OC [compound 119]						Emax ([1]; percent above DMSO, read-out: α-Syn Emax): 61%; EC50 ([1]; read-out: α-Syn EC50): 20.9 µM; IC50 (SCD1; [2]): > 45 µM; IC50 (SCD5; [3]): > 45 µM

Source: patent US20240400546A1, “COMPOUNDS AND USES THEREOF” (JANSSEN PHARMACEUTICA NV, priority 2016, published 2024)
